Source: article PMC4129175, “HPLC-Fingerprints and Antioxidant Constituents of Phyla nodiflora” (The Scientific World Journal, 2014)
Like-named read-outs stand apart in the source and are kept apart here.

Experiments:
[1] = design: method as in Lan et al. 2013 [15]; settings: positive control; ref Lan et al. 2013 [15]; cited from earlier work
[2] = design: method as in Lan et al. 2013 [15]; settings: positive control; ref Lan et al. 2013 [15]; cited from earlier work; remark: listed apart in the source
[3] = design: method as in Lan et al. 2013 [15]; settings: positive control; ref Lan et al. 2013 [15]; cited from earlier work; remark: listed apart in the source
[4] = Superoxide anion radical (O2∙−) scavenging assay (xanthine/xanthine oxidase, NBT); type: biochemical; settings: concentration that scavenges 50% radicals; mean ± SD, n = 3
Description: (§1) The procedures of O2 ^∙− scavenging activity and mushroom tyrosinase inhibitory effect were performed as previous report. In the O2 ^∙− scavenging assay, xanthine (0.1 mM, 15 μl) in 50 mM phosphate buffer (pH 7.4), NBT (25 μM, 16 μl), EDTA (0.1 μM, 14 μl), and 100 μl of various concentrations of test compounds were mixed in the 96-well plates. Reactions were initiated by adding 0.5 U xanthine oxidase. After 30 min, the absorbance of each mixture was measured at 540 nm. In the mushroom tyrosinase inhibitory assay, L-tyrosine (2 mM, 80 μl) in 50 mM phosphate buffer (pH 6.5) and various concentrations of test compounds (100 μl) were added to 96-well plates. After 10 min incubation, 20 U mushroom tyrosinase was added to start the reaction. The absorbance of each mixture was measured at 490 nm after 30 min incubation. The O2 ^∙− scavenging capacity and the percentage inhibition of mushroom tyrosinase were calculated using the same formula as for the DPPH radical scavenging assay.

[5] = ABTS cation radical (ABTS∙+) decolorization/scavenging assay; settings: concentration that scavenges 50% radicals; mean ± SD, n = 3
Description: The ABTS decolorization assay was performed as described, with slight modification. The ABTS cation radical (ABTS^∙+) was produced by reacting 7 mM stock solution of ABTS with 2.45 mM potassium persulfate (final concentration) and allowing the mixture to stand in the dark for 6–8 h at room temperature before use. The ABTS^∙+ solution was diluted to an absorbance of 0.7 ± 0.02 at 734 nm. Thirty microliters of samples of different concentrations were mixed with 170 μl of ABTS^∙+ working solution under a dark condition and shaken for 15 s. The absorbance was measured at 734 nm after 20 min. The scavenging capacity was calculated using the same formula as for the DPPH radical scavenging assay.

[6] = DPPH radical (DPPH∙) scavenging assay; settings: concentration that scavenges 50% radicals; mean ± SD, n = 3
Description: In the DPPH radical (DPPH^∙) scavenging assay, fifty microliters of samples of various concentrations were mixed with 150 μl of DPPH^∙ solution (0.1 mM) dissolved in methanol. Each mixture was allowed to stand for 30 min and measured at 517 nm using a multiplate spectrophotometer (μQuant, Bio-Tek, USA). The scavenging ability was calculated using the following formula: (1) Scavenging ability (%) =(1−sample absorbance/control absorbance)×100%.

mushroom tyrosinase = mushroom tyrosinase (Agaricus bisporus, UniProt C7FF04); assay: Lineweaver-Burk kinetic study of tyrosinase inhibition; type: biochemical; settings: Lineweaver-Burk plot, various concentrations of tyrosine
Description: as §1
(§2) This study used Lineweaver-Burk plots to determine the inhibitory mode of test samples [15]. The kinetic study was performed in the presence or absence of test samples with various concentrations of tyrosine or xanthine as the substrate.
Figure 2 Lineweaver-Burk plot of tyrosinase inhibition of (a) onopordin (4) and (b) eupafolin (7) with various concentrations of tyrosine. […]

xanthine oxidase (XO) = target: T1, xanthine oxidase (XO) (Bos taurus, UniProt P80457); assay: Lineweaver-Burk kinetic study of xanthine oxidase inhibition; type: biochemical; settings: for Ki / Vmax (xanthine oxidase): xanthine as substrate
T1 construct: purchased Sigma-Aldrich; host or cells: buttermilk
Description: as §1, §2
Figure 1 Lineweaver-Burk plot of xanthine oxidase inhibition of eupafolin (7) with various concentrations of xanthine. (×) Without eupafolin, (▲) 5 μM of eupafolin, (●) 10 μM of eupafolin, and (○) 20 μM of eupafolin. Data are presented as mean ± SD of three independent experiments.

T1 sequence (P80457 whole entry): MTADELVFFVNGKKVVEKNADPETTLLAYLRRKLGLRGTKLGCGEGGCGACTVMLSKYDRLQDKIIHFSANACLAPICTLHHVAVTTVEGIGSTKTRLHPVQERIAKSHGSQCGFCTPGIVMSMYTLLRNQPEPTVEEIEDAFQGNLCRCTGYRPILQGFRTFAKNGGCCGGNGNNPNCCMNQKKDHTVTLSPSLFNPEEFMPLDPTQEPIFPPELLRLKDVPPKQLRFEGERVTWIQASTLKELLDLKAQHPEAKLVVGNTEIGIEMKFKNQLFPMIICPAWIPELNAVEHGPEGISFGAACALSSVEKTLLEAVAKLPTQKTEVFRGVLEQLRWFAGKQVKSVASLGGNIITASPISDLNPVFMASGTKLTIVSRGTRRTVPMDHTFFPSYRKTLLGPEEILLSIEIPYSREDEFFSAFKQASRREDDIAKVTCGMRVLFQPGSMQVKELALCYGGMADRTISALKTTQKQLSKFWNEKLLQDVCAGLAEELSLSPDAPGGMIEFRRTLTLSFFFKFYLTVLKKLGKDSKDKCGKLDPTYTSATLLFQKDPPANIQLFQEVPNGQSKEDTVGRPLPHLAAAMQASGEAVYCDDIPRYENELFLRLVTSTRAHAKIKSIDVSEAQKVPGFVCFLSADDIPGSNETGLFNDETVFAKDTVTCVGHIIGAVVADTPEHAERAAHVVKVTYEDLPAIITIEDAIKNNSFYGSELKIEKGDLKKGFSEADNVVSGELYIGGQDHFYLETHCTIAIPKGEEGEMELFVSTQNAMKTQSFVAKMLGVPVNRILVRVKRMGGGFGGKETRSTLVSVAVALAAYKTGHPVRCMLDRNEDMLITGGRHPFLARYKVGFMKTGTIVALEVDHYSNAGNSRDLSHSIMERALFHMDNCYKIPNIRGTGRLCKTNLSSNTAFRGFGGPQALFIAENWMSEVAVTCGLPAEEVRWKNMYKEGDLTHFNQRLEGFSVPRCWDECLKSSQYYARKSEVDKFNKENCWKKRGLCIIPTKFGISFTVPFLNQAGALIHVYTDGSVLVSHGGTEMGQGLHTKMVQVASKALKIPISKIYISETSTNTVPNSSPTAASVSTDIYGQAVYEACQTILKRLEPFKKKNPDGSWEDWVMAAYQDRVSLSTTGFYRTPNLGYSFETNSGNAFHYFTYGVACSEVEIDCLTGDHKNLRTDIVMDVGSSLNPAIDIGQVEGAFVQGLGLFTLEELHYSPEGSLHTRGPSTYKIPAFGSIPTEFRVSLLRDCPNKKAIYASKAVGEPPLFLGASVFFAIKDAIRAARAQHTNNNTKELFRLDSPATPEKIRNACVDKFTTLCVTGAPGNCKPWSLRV
Sequence of mushroom tyrosinase (C7FF04 1-392): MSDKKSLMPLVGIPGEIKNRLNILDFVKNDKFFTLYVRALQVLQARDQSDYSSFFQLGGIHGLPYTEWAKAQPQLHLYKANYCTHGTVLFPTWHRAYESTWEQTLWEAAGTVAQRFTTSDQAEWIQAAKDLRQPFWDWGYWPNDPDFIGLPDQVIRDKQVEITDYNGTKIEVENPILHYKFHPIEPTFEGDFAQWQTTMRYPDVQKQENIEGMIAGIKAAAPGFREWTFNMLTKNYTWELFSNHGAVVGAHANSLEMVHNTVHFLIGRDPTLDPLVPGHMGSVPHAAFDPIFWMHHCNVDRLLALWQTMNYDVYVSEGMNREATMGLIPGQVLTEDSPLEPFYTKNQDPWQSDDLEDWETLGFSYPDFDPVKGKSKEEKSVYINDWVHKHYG
Sequence of mushroom tyrosinase (G1K3P4 entry or part of it, further chain): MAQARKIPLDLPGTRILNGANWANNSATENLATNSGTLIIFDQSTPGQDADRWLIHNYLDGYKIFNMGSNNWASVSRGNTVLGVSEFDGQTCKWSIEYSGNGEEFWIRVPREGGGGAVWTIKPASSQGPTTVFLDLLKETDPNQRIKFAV

Compound | O2∙− SC50 [4] | ABTS∙+ SC50 [5] | DPPH∙ SC50 [6] | also measured
O=c1cc(-c2ccc(O)cc2)oc2cc(O)cc(O)c12 [Apigenin] |  |  |  | O2∙− SC50 [1]: 81.3 ± 2.0 µM; DPPH∙ SC50 [2]: >300 µM; ABTS∙+ SC50 [3]: 159.6 ± 4.4 µM
COc1cc(-c2cc(=O)c3c(O)c(O)c(O)cc3o2)ccc1O [Compound 2, nodifloretin] | 42.3 ± 1.5 µM | 62.2 ± 2.5 µM | 198.2 ± 3.8 µM | 
COc1c(O)cc(O)c2c(=O)cc(-c3ccc(O)cc3)oc12 [Compound 3, 4′-hydroxywogonin] | 59.9 ± 2.1 µM | >300 µM | >300 µM | 
COc1c(O)cc(O)c2c(=O)cc(-c3ccc(O)c(O)c3)oc12 [Compound 4, onopordin] | 23.5 ± 0.5 µM | 53.7 ± 3.9 µM | 24.7 ± 1.2 µM | Inhibitory mode on tyrosinase (mushroom tyrosinase): mixed-type inhibitor
COc1cc2oc(-c3ccc(O)c(O)c3)cc(=O)c2c(O)c1OC [Compound 5, cirsiliol] | 10.7 ± 1.3 µM | 58.4 ± 2.7 µM | 21.8 ± 1.2 µM | 
COc1cc(-c2cc(=O)c3c(O)cc(O)c(O)c3o2)ccc1O [Compound 6, 5,7,8,4′-tetrahydroxy-3′-methoxyflavone] | 34.6 ± 2.4 µM | >300 µM | >300 µM | 
COc1c(O)cc2oc(-c3ccc(O)c(O)c3)cc(=O)c2c1O [Compound 7, eupafolin] | 8.3 ± 0.4 µM | 30.5 ± 1.2 µM | 24.1 ± 0.4 µM | Ki (xanthine oxidase (XO); 7 at 5 μM): 4.48 µM; Vmax (xanthine oxidase) (xanthine oxidase (XO); 7 at 5 μM): 3.6 × 10^−2 ΔO.D./min; Ki (xanthine oxidase (XO); 7 at 10 μM): 5.05 µM; Vmax (xanthine oxidase) (xanthine oxidase (XO); 7 at 10 μM): 3.2 × 10^−2 ΔO.D./min; Ki (xanthine oxidase (XO); 7 at 20 μM): 8.93 µM; Vmax (xanthine oxidase) (xanthine oxidase (XO); 7 at 20 μM): 3.1 × 10^−2 ΔO.D./min; Inhibitory mode on xanthine oxidase (xanthine oxidase (XO); Lineweaver-Burk plot, various concentrations of xanthine): mixed-type inhibitor; Inhibitory mode on tyrosinase (mushroom tyrosinase): competitive inhibitor
COc1c(O)cc2oc(-c3ccc(O)cc3)cc(=O)c2c1O [Compound 8, hispidulin] |  | 55.3 ± 3.8 µM | 57.5 ± 2.7 µM | 
O=C1O[C@H]([C@@H](O)CO)C(O)=C1O [Vit. C, L-Ascorbic acid, reference compound] | 23.5 ± 1.7 µM | 49.9 ± 2.1 µM | 64.6 ± 4.4 µM | 
